Entries after “also recorded” stand apart in the source; their conditions may differ. Like-named read-outs stand apart in the source and are kept apart here.

Assay [1] concerns 3T3H-ras (61 L) xenograft tumor; Ras farnesylation. As to conditions: continuous infusion, 7 day treatment, cited from earlier work.
Assay [2] addresses T1, GGTase (Homo sapiens, UniProt P49354+P53609). The experiment in a line: Table 5A in vitro GGTI (H-Ras, K-Ras CAAX mutant). It is filed as biochemical. From the text:
The selectivity of LNK-754 for FTase over GGTAse is shown below in Table 5A.

For a further assay, the system named is INS1 cells. Kind of assay: Glucolipotoxicity-induced mitochondrial fragmentation in INS1 cells. The settings on record: 1 nM. It is filed as cell-based. The procedure: To determine the effect of LNK-754 on glucolipotoxicity-induced mitochondrial fragmentation, LNK-754 at 1 nM and 100 nM concentrations was cultured with INS1 cells in media containing palmitate according to methods and procedures described in Molina et. al. 2009. […] Treatment with 1 nM LNK-754 results in about a 70% increase in normal mitochondrial morphology in comparison with no treatment with LNK-754. […] Treatment with 1 nM LNK-754 results in about a 55% decrease in fragmentation induced by palmitate. Low dose LNK-754 protected INS1 cells from glucolipotoxicity-induced mitochondrial fragmentation as evident from the striking mitochondrial imaging results.

The target in assay [3] is T1, GGTase. The experiment in a line: GGTase inhibitory activity, general statement. It is filed as biochemical. As to conditions: selective FTase inhibitors.
The test system of another assay is Aβ. Kind of assay: Aβ immunohistochemistry, Thioflavin-S and Aβ40/Aβ42 ELISA in APP/PS1 transgenic mice. It is filed as in vivo, mouse. The text has this:
Immunohistochemistry and quantification of stained cells: For evaluation of α-synuclein immunoreactivity (IR), 5 sagittal cryo-cut sections (10 μm slice thickness) from five different layers were used for counting of IR cells in the cortex and hippocampus. Brain sections were stained with a monoclonal human α-synuclein specific antibody (Alexis®; Cat#804-258-L001; dilution 1:5), followed by a secondary Ab Cy 2-Goat Anti-Rat (Jackson ImmunoResearch®; dilution 1:200). IR positive cells were quantified using specialized image analysis software (Image Pro Plus, version 4.5.1.29). For Tau transgenic animals, 5 μm thick coronal paraffin sections were stained with the monoclonal mouse anti-human TAU-antibodies (AT180—1:100; HT7—1:500) and visualized using an anti-mouse Cy3 secondary antibody (1:500, Jackson Laboratories®). Images were evaluated with ImageProPlus (version 6.2) image analysis software. For APP/PS1 transgenic animals sagittal hemisections (40 μm) were collected and processed for Aβ immunohistochemistry using an 6E10 antibody, Thioflavin-S staining. Primary antibodies were detected by the ABC method.
ELISA quantification of α-Synuclein in the α-Synuclein transgenic animals: Brain homogenate was centrifuged and the supernatant saved as fraction F1. The pellet was washed then resuspended and saved as fraction F2. Plates (Nunc, 464718) were coated with SYN-1 (1:1000, BD Transduction Labs, 610787). Monomeric recombinant α-synuclein was included as an internal standard. Biotinylated antibody FL-140 (1:300, Santa Cruz Biotechnology, sc-10717-B) and ExtrAvidin-Alkaline phosphatase (3:5000, Sigma, E2636) was added followed by pNPP substrate solution (Sigma, N1891). Raw absorbance (405 nm) was then normalized to the total protein concentration of each sample. In the APP/PS1 transgenic animal, brains were homogenized and the supernatant, Faction 1, was separated from the pellet. The pellets were further processed with addition of NP40 and Triton X-100. The supernatant was separated from the pellet as the insoluble membrane, Fraction 2, and was dissolved in 8M Guanidine. To quantify the amount of human Aβ-40 and Aβ-42, ELISA kits were used (The Genetics Company, Zurich, Switzerland).
Mice were treated with LNK-754-TS for two months, tested for performance in the Morris water maze (MWM), and then sacrificed for immunohistochemical (Aβimmunoreactivity) and biochemical (ELISA measurement of Aβ40 and Aβ42) analysis.
(In general: An ELISA detects its analyte on a solid surface through an enzyme-linked reagent.)

In another assay the test system is HDJ2. Kind of assay: Inhibition of HDJ2 farnesylation in SH-SY5Y cells. It is filed as cell-based, human. The settings on record: continuous exposure over long periods.
For a further assay, the system named is TAU441 transgenic mice. The experiment in a line: Porsolt forced swim task in TAU441 transgenic mice. It is filed as in vivo, mouse. As to conditions: 0.09 mg/kg daily for 90 days. From the text: Tests relevant to depression-like behaviors in rodents are primarily stress-induced reductions in avoidance or escape, termed behavioral despair. One of the most widely used animal tests for depression is the Porsolt forced swim task (Porsolt et al., Arch. Int. Pharmacodyn. Ther. 229(2):327-36, 1977; Porsolt et al., Eur. J. Pharmacol. 47(4):379-91, 1978). This study was designed to evaluate the effects of treatment with LNK-754 on behavior of TAU441 transgenic mice. At start of the treatment, the animals were 5 months old. Untreated non-transgenic animals of the same age were tested and sacrificed serving as the baseline group. Mice received vehicle or LNK-754-TS at a dose of 0.09 mg per kg, 7 days a week for 90 days. In the last week of the treatment period and before sacrifice, mice were evaluated using the Porsolt forced swim task (FIG. 10B).

In assay [4] the test system is 3T3H-ras (61 L) xenograft. As to conditions: cited from earlier work.
In assay [5] the test system is autophagy-related gene transcripts. Kind of assay: mRNA of autophagy-related genes (Atg1, p62) in SH-SY5Y cells. It is filed as cell-based, human. As to conditions: 100 nM. The procedure:
Quantitative real-time PCR: Gene expression profiles were done by qPCR on series of known autophagy genes. RNA was extracted with Tri-reagent (Sigma), and cDNAs generated using iScript (Biorad). qPCR analysis was carried out in a 96 well plate using an iCycler (BioRad, Hercules, Calif.), and iQ SYBR Green Supermix (Biorad) according to the manufacturer's specifications.
Rapamycin is a well-characterized autophagy stimulator that acts through inhibition of mTOR, a kinase involved in nutrient signaling and regulation of cell growth and survival.

Where [6] appears, read: 0.9 mg/kg once every 24 hr, two months.

Regarding `C#Cc1cccc(-c2cc(=O)n(C)c3ccc([C@](O)(c4ccc(Cl)cc4)c4cncn4C)cc23)c1` [LNK-754, (R)-6-[(4-chlorophenyl)-hydroxyl-(1-methyl-1-H-imidazol-5-yl)-methyl]-4-(3-ethynylphenyl)-1-methyl-2-(1H)-quinonlinone], the “inhibition of Ras farnesylation at which significant inhibition of tumor growth was seen” value in [1] (tumor tissue) was “at least 50%”. Besides, the “continuous serum level at which significant inhibition of tumor growth was seen” value in [1] is given as “above 100 ng/mL”. In addition, the IC50 on GGTase [2] (read-out: H-Ras CAAX Mutant GGTI) is 552 nM; at GGTase [2] (read-out: K-Ras CAAX Mutant GGTI), 2890 nM. In addition, in the assay with INS1 cells, the “decrease in fragmentation induced by palmitate” value is recorded as around 55%. The “increase in normal mitochondrial morphology” value in the assay on INS1 cells (palmitate, vs no treatment) is reported as around 70%. For the same compound, the GGTase inhibitory activity entry on GGTase [3] is “little to no GGTase inhibitory activity”.
`C#Cc1cccc(-c2cc(=O)n(C)c3ccc([C@](O)(c4ccc(Cl)cc4)c4cncn4C)cc23)c1` [LNK-754-TS, (R)-6-[(4-chlorophenyl)-hydroxyl-(1-methyl-1-H-imidazol-5-yl)-methyl]-4-(3-ethynylphenyl)-1-methyl-2-(1H)-quinonlinone (2S, 3S)-dihydroxybutanedioate]: in the assay with Aβ (setting [6]), the “Thioflavin-S staining in the subiculum” value is listed as “no statistically significant changes” and the “levels of Aβ40/Aβ42 from whole brain fractions, ELISA” value is “no statistically significant changes”. Further, the “number of Aβ (6E10) immunoreactive plaques in the subiculum” value in the assay with Aβ (0.9 mg/kg once every 24 hr, two months, vs vehicle) is “lesser, but still significant, effect; also recorded: significant decrease”. Further, the “Aβ40 or Aβ42 levels, Aβ immunoreactivity or Thio-S staining” value in the assay on Aβ (0.9 mg/kg, 12 days) is given as “no significant reduction”. In the assay on HDJ2, this compound came in with an IC50 of 10 nM. In addition, the “behavior compared with non-transgenic mice, forced swim task” value with TAU441 transgenic mice is “behaved similar to non-transgenic mice; also recorded: behaved similarly to non-tg mice”. In addition, in the assay with TAU441 transgenic mice (vs vehicle), the “floating, forced swim task” value is given as “significantly less floating; also recorded: decreasing floating behavior” and the “struggling behavior, forced swim task” value is recorded as “higher percentage of struggling behavior; also recorded: increasing struggling behavior”. The “efficacy against tumor growth” value in [4] (25 mg/kg, lowest dose tested) is reported as “borderline efficacy”. In assay [4] (10 days BID, 3T3H-ras (61 L) xenograft athymic mouse), the “dose required for suppression of tumor growth” value is given as “at least 25 mg per kg”. Besides, the “transcript encoding p62” value in assay [5] (SH-SY5Y (FIG. 8e)) is “induced upregulation; also recorded: increased”. Also, in assay [5] (SH-SY5Y (FIG. 8d)), the “mRNA levels of a set of autophagy-related genes (incl. Atg1)” value is given as “unaffected”.
